{"source": "patent US12472221B2", "about": "“Composition for inhibiting osteoclasts containing agastache rugosa extract as active ingredient, and use thereof” (Korea Institute of Oriental Medicine, priority 2019, dated 2025)", "key": {"[1]": {"test_system": "differentiation of bone marrow cell-derived macrophages (BMMs) into osteoclasts", "assay": "Osteoclast differentiation of bone marrow cell-derived macrophages (M-CSF/RANKL, TRAP staining, osteoclast count)", "format": "cell-based, mice", "conditions": "compared with WEAR at the same concentration", "procedure": "Specifically, bone marrow cells of mice were cultured in α-MEM medium containing M-CSF (60 ng/ml) and 10% FBS for 3 days to obtain bone marrow cell-derived macrophages (BMMs), which were used as osteoclast progenitor cells. To generate osteoclasts, 1×10^4 pieces of the obtained BMMs were placed in per well of a 96-well plate, cultured for 4 days in a medium containing M-CSF (60 ng/ml) and RANKL (50 ng/ml), and the BMM were treated with hot water extract of Agastache rugosa (WEAR; 10, 33, 100, 200 μg/ml) or ethanol extract of Agastache rugosa (EEAR; 10, 33, 100 μg/ml) under the same culture condition. After fixing the cells with 10% formalin, TRAP (Tartrate-resistant acid phosphatase) staining was performed using naphthol AS-MS phosphate and Fast red violet LB salt, and TRAP-positive cells having three or more nuclei (osteoclasts) were counted. Data are presented as mean±standard deviation, and statistical analysis was performed using one-way ANOVA with Dunnett test, **p<0.01.\nIC50 (inhibitory concentration 50), the concentration showing 50% inhibition efficiency, was calculated using PraphPad Prism software.\nSpecifically, WEAR-PO, WEAR-ED, P0-3 kDA Fx, P0-10 kDA Fx, P0-30 kDA Fx, P0-100 kDA Fx, P0-300 kDA Fx […], respectively, and the osteoclast differentiation inhibitory effect was assessed in the same manner as in Example <3-1>."}, "[2]": {"test_system": "bone marrow cell-derived macrophages (BMMs)", "assay": "Cell viability of osteoclast progenitor cells (CCK-8)", "format": "cell-based, mice", "conditions": "5 and 10 μg/ml, 2 days", "procedure": "Specifically, 1.2×10^4 pieces of bone marrow cell-derived macrophages (BMMs) were placed in per well of a 96-well plate, and then cultured for 2 days in a medium containing M-CSF (60 ng/ […] ) in which hot water extract of Agastache rugosa extract (WEAR; 5, 10, 20, 33, 100 and 200 μg/ml), ethanol extract of Agastache rugosa (EEAR; 10, 33 and 100 μg/ml) or isoagastachoside (5 and 10 μg/ml) samples were added. Cell viability was determined by measuring absorbance at 450 nm using Cell counting Kit-8 (CCK-8, Dojindo Inc.), percentage of untreated controls and data are presented as mean±standard deviation, and statistical analysis was performed using one-way ANOVA with Dunnett test, **p<0.01."}}}
{"smiles": "COc1ccc(-c2cc(=O)c3c(O)cc(O[C@@H]4O[C@H](CO)[C@@H](O)[C@H](O)[C@H]4OC(C)=O)cc3o2)cc1", "note": "[isoagastachoside]", "values": [{"measurement": "inhibitory effect on osteoclast differentiation (in words)", "setting": "[1]; 10 μg/ml", "result": "inhibited osteoclast differentiation very significantly compared to WEAR at the same concentration"}, {"measurement": "inhibitory effect on osteoclast differentiation (in words)", "setting": "[1]; 5 and 10 μg/ml", "result": "better inhibitory effect on osteoclast differentiation than WEAR at the same concentration"}, {"measurement": "effect on cell survival", "setting": "[2]", "result": "no effect in cell survival"}]}
